Source: publication PMC12440824, “Chimeric deubiquitinase engineering reveals structural basis for specific inhibition of the mitophagy regulator USP30” (Nature Structural & Molecular Biology, 2025)

Tests used:
USP30^ch1 = USP30^ch1 (Homo sapiens, UniProt Q70CQ3); assay: Ub–RhoG cleavage enzyme inhibition assay, chimera 1; format: biochemical; set-up: scale not given here; conditions: mean n=3
Method: (§1) Enzyme kinetics were performed in black, low-volume, non-binding-surface 384-well plates. […] Next, 10 µl of 2× enzyme solution was added in triplicate to the plate. The reaction was started by adding 10 µl of 2× substrate solution. […] Inhibitor solution (4×) was added to 4× enzyme solution to create a 2× enzyme–inhibitor mixture. Next, 10 µl of this 2× enzyme–inhibitor mixture was then added to the plate in triplicate, and the plate was incubated at room temperature for 90 min. The reaction was started by adding 10 µl of 2× Ub–RhoG substrate. […] Data were analyzed with GraphPad Prism.

USP30^ch3 F157A = USP30^ch3 F157A (Homo sapiens, UniProt Q70CQ3, F157A, form not given); assay: Ub–RhoG cleavage enzyme inhibition assay, chimera 3 F157A; format: biochemical; conditions: mean n=3
Method: as §1

USP30^ch3 A162S = USP30^ch3 A162S (Homo sapiens, UniProt Q70CQ3, A162S, form not given); assay: Ub–RhoG cleavage enzyme inhibition assay, chimera 3 A162S; format: biochemical; conditions: mean n=3
Method: as §1

USP30^ch3 = USP30^ch3 (Homo sapiens, UniProt Q70CQ3); assay: Thermal shift assay, USP30 ch3; format: binding; conditions: 20 μM inhibitor
Method: The thermal stability of USP30 constructs and effects of either inhibitor or Ub-PA binding were determined by thermal shift assays. Inhibitor, Ub-PA and SYPRO orange dye (Sigma, 5,000× stock in DMSO) solutions were prepared in 1× PBS, 4 mM DTT. Inhibitor/Ub-PA was prediluted to 100 µM, and SYPRO orange dye was prediluted to 50× (from the commercial stock). Mixtures of protein, inhibitor/Ub-PA and SYPRO were prepared with inhibitor/Ub-PA at a final concentration of 20 μM, SYPRO at a final concentration of 4× and protein at a final concentration of 2 μM for c1, 4 μM for ch1, ch4 and c2 and 3 μM for ch2 and ch3. Samples were added in triplicate to a white 96-well PCR plate (Bio-Rad). Fluorescence intensity was monitored (excitation, 450–490 nm; emission, 560–580 nm) at a gradient of 20–90 °C (increment of 0.3 °C, hold for 5 s before read) on a real-time PCR system (Bio-Rad).

[1] = test system: T1, Flag-tagged, full-length USP30 F453Y in HEK293 cells; assay: Cellular ubiquitin probe competition, overexpressed Flag-tagged USP30 F453Y; format: cell-based, human; conditions: 2 µM compound, 2 h; HA-Ub-PA probe in lysate
T1 construct: C-terminally Flag-tagged human USP30 (1–517) was used for transient transfection; expressed in transfected cells; host or cells: HEK293, transient transfection of a pOPINE vector
Method: (§2) HEK293 cells (8 × 10^5 cells per well) were seeded in six-well plates and cultivated for 24 h. PEI transfecting reagent (Polysciences) was pre-incubated for 10 min with the vectors in 200 μl Opti-MEM medium (2 µg DNA per well). Cells were transfected and incubated for 48 h. Following the treatment with either compounds or DMSO in fresh medium for an additional 2 h, cells were processed as described below. Cells were seeded at 8 × 10^5 cells per well and grown for 48 h. […] The medium was aspirated, and cells were washed once with ice-cold PBS. Cells were collected by scraping in lysis buffer (150 mM NaCl, 250 mM sucrose, 50 mM Tris, pH 8.0, 5 mM TCEP) supplemented with EDTA-free complete protease inhibitor cocktail and benzonase. Suspended cells were homogenized by 12 bursts of a microtip probe sonicator (Branson Sonifier 450) at 10% amplitude with pulses of 1 s on ice. Remaining cell debris was separated by centrifugation (20,817g, 5 min, 4 °C). […] After incubation for 10 min at room temperature, reactions were quenched by the addition of 4× reducing LDS sample buffer. Samples were resolved by SDS–PAGE and further analyzed via western blot. Using a Trans-Blot Turbo system (Bio-Rad, 1.0 A, 25 V, 30 min), proteins were blotted onto a nitrocellulose membrane. […]

USP30 = test system: USP30; set-up: method as in PMID 37385347; conditions: ‘pseudo-covalent’ binding mode proposed; cited from earlier work
[2] = test system: overexpressed USP30 F157A, I154A, A162S in HEK293 cells; assay: Cellular ubiquitin probe competition, overexpressed USP30 F157A, I154A, A162S; format: cell-based, human; conditions: 2 µM compound, 2 h
Method: as §2

Chain of USP30^ch1 (Q70CQ3 64-502): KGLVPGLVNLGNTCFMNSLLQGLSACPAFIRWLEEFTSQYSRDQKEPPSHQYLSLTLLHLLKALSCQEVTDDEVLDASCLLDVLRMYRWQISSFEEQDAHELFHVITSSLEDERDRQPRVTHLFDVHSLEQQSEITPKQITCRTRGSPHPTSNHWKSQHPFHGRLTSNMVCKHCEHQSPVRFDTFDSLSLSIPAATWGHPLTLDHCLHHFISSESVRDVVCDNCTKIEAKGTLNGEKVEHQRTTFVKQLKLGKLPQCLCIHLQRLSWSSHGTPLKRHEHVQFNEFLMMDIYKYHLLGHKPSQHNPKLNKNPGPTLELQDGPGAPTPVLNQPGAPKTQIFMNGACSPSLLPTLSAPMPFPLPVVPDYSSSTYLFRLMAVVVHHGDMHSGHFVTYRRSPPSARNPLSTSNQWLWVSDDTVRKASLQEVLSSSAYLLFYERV
Chain of USP30^ch1 (Q93009 325-395 partner): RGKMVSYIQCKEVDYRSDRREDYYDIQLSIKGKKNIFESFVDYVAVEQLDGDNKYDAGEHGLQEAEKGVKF
Chain of USP30^ch3 A162S (Q70CQ3 64-502 A162S, form open): as the sequence (Q70CQ3 64-502) above, with A99S counted along it
Chain of USP30^ch3 A162S (P54578 248-318 partner, form open): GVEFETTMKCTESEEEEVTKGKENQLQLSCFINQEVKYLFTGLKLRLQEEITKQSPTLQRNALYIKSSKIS
Chain of USP30^ch3 A162S (Q9P2H5 821-846 partner, form open): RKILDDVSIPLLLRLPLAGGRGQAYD
Chain of USP30^ch3 F157A (Q70CQ3 64-502 F157A, form open): as the sequence (Q70CQ3 64-502) above, with F94A counted along it
Chain of USP30^ch3 F157A (P54578 248-318 partner, form open): as the sequence (P54578 248-318 partner, form open) above
Chain of USP30^ch3 (Q70CQ3 64-502): as the sequence (Q70CQ3 64-502) above
Chain of USP30^ch3 (P54578 248-318 partner): as the sequence (P54578 248-318 partner, form open) above

Molecule `CC(C)(C)NS(=O)(=O)c1ccc(NC(=O)[C@H](Cc2ccccc2)NC(=O)c2ccc(F)cc2)cc1` [compound 39] has a USP30ch1 activity (USP30^ch1; inhibitor 0.0015625 nM) of 0.9737, a USP30ch1 activity (USP30^ch1; inhibitor 0.00625 nM) of 0.9837 and a USP30ch1 activity (USP30^ch1; inhibitor 0.025 nM) of 0.8913. It also gave a USP30ch1 activity (USP30^ch1; inhibitor 0.1 nM) of 0.7529, a USP30ch1 activity (USP30^ch1; inhibitor 0.39 nM) of 0.5726 and a USP30ch1 activity (USP30^ch1; inhibitor 1.56 nM) of 0.3796. The USP30ch1 activity (USP30^ch1; inhibitor 6.25 nM) was 0.2212, the USP30ch1 activity (USP30^ch1; inhibitor 25 nM) was 0.1115 and the USP30ch1 activity (USP30^ch1; inhibitor 100 nM) was 0.04824. For the same molecule, the USP30ch1 activity (USP30^ch1; inhibitor 400 nM) was 0.02114, the USP30ch1 activity (USP30^ch1; inhibitor 1600 nM) was 0.0058 and the “USP30ch3 F157A activity” value (USP30^ch3 F157A; inhibitor 0.001563 nM) was 0.978. For the same molecule, the “USP30ch3 F157A activity” value (USP30^ch3 F157A; inhibitor 0.00625 nM) was 1.043, the “USP30ch3 F157A activity” value (USP30^ch3 F157A; inhibitor 0.025 nM) was 0.9706 and the “USP30ch3 F157A activity” value (USP30^ch3 F157A; inhibitor 0.1 nM) was 0.9583. The “USP30ch3 F157A activity” value (USP30^ch3 F157A; inhibitor 0.39 nM) was 0.8963, the “USP30ch3 F157A activity” value (USP30^ch3 F157A; inhibitor 1.56 nM) was 0.8924 and the “USP30ch3 F157A activity” value (USP30^ch3 F157A; inhibitor 6.25 nM) was 0.7707. The “USP30ch3 F157A activity” value (USP30^ch3 F157A; inhibitor 25 nM) was 0.6122, the “USP30ch3 F157A activity” value (USP30^ch3 F157A; inhibitor 100 nM) was 0.362 and the “USP30ch3 F157A activity” value (USP30^ch3 F157A; inhibitor 400 nM) was 0.2241. The “USP30ch3 F157A activity” value (USP30^ch3 F157A; inhibitor 1600 nM) was 0.2066, the “USP30ch3 A162S activity” value (USP30^ch3 A162S; inhibitor 0.001563 nM) was 0.9737 and the “USP30ch3 A162S activity” value (USP30^ch3 A162S; inhibitor 0.00625 nM) was 1.01. The “USP30ch3 A162S activity” value (USP30^ch3 A162S; inhibitor 0.025 nM) was 0.9776, the “USP30ch3 A162S activity” value (USP30^ch3 A162S; inhibitor 0.1 nM) was 0.9451 and the “USP30ch3 A162S activity” value (USP30^ch3 A162S; inhibitor 0.39 nM) was 0.896. The “USP30ch3 A162S activity” value (USP30^ch3 A162S; inhibitor 1.56 nM) was 0.93, the “USP30ch3 A162S activity” value (USP30^ch3 A162S; inhibitor 6.25 nM) was 0.7972 and the “USP30ch3 A162S activity” value (USP30^ch3 A162S; inhibitor 25 nM) was 0.6308. For the same molecule, the “USP30ch3 A162S activity” value (USP30^ch3 A162S; inhibitor 100 nM) was 0.4027, the “USP30ch3 A162S activity” value (USP30^ch3 A162S; inhibitor 400 nM) was 0.2411 and the “USP30ch3 A162S activity” value (USP30^ch3 A162S; inhibitor 1600 nM) was 0.2091. The “Tm in presence of compound, USP30^ch3” value (USP30^ch3) was 61.5 °C, the “probe labeling of Flag-USP30 F453Y” value [1] was “equally labeled” and the off-rate (USP30) was “exceptionally slow off-rate”.
For `CC(C)(CO)NS(=O)(=O)c1ccc(NC(=O)[C@H](Cc2ccccc2)NC(=O)c2ccc(F)cc2)cc1` [NK036], the “probe labeling of Flag-USP30 F453Y” value [1] was “equally labeled” and the “inhibition of overexpressed USP30 F157A, I154A, A162S in cells” value [2] was “refractory to inhibition”.
